What all share (assay): DTP human tumour cell line panel, 48 h
Test [1] relates to SN12C renal.
Test [2] deals with IGROV1 ovarian.
For test [3], the system named is LOX IMVI melanoma.
Test [4] has as its system SK-MEL-5 melanoma.
In test [5] the test system is HS 578T breast.
Test [6] relates to EKVX NSCLC.
Test [7] has as its system ACHN renal.
Test [8] concerns U251 CNS.
In test [9] the test system is HCT-116 colon.
The test system of test [10] is OVCAR-3 ovarian.

The structures appear in SMILES notation. Values joined by “and” are separate entries in the source; they are usually repeats but may differ in a detail not shown here. Identical values can stand only once.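 Compound exposure: 48 hours, 5 concentrations, 96-well plates. GI50 marks 50% less growth. TGI denotes the concentration required for complete inhibition of growth.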

As usually defined, the TGI is the concentration at which net growth stops. High values mean lower sensitivity of the cells, low ones greater sensitivity of the cells. With `CC(C)N(CC(=O)O)CC(=O)O`, the TGI in [1], in [2], in [3], in test [4], in test [5] and in test [6] was above 100 µM throughout. In addition, the total growth inhibition concentration (TGI) in test [7], in [8], in [9] and in test [10] was above 100 µM each time.
For the compound `O=C1c2cc3c(cc2[C@@H]2C(O)[C@H]4O[C@H]4C4CCN1C42)OCO3` (stereo partly drawn), the concentration for total growth inhibition (TGI) in [1], in test [2], in [3], in test [6], in test [7] and in [9] was above 37.5 µM each time. In test [10], the concentration for total growth inhibition (TGI) is above 37.5 µM.
As a reminder, the GI50 is the concentration giving 50% growth inhibition. Consider `C[C@@]12CC[C@@H](O)C[C@@H]1CC[C@H]1[C@H]2CC[C@@]2(C)[C@H](c3ccc(=O)oc3)CC[C@@]12O`, for which the GI50 in test [1], in test [2], in test [3], in test [4], in test [5] and in [6] was below 0.01 µM in each case. The 50% growth inhibitory concentration (GI50) in test [8], in [9] and in [10] was below 0.01 µM in each case. In addition, the concentration for total growth inhibition (TGI) in [1] worked out at 0.0272 µM; in test [2], 0.171 µM; in test [3], 0.0169 µM; in test [4], 0.0141 µM; in test [5], 0.0351 µM; in [6], 0.0104 µM. For the same compound, the values for the total growth inhibition concentration (TGI) in test [8], in [9] and in [10] were 0.0363 µM, 0.0122 µM and 0.0268 µM, respectively.
For the compound `O=C(c1ccccc1)c1ccc(N2C(=O)/C(=C/c3cccc(Oc4ccccc4)c3)N=C2c2ccccc2)c(N2C(=O)/C(=C/c3cccc(Oc4ccccc4)c3)N=C2c2ccccc2)c1`, the TGI in test [1] was above 100 µM; in test [2], above 100 µM; in test [3] it was above 100 µM; in [4] it was 30.7 µM; in test [5] it was 88.5 µM; in test [6], above 100 µM. Besides, the TGI in test [7] was above 100 µM; in test [8], above 100 µM; in [9], above 100 µM; in [10], 69.8 µM.
As for `CCOC(=O)C(C(=O)OCC)c1cc(-c2cc3ccccc3o2)oc(=O)c1C#N`, the TGI is 62.9 µM in test [1]; 80 µM in test [2]; 31.8 µM in test [3]; above 100 µM in [4]; above 100 µM in test [6]; above 100 µM in test [7]. For the same compound, the total growth inhibition concentration (TGI) is 30.6 µM in test [8] and 44.9 µM in [9].
On to `NC1=NC(c2ccc(Cl)cc2)=CC(c2cccc(Cl)c2)S1` (stereo not drawn), for which the concentration for total growth inhibition (TGI) was 85.2 µM in test [1]; above 100 µM in [2]; 99.1 µM in test [3]; 80.7 µM in test [4]; 66.7 µM in test [5]; 96.9 µM in test [6]. Moreover, the TGI is 59.9 µM in [7], 55.5 µM in test [8], above 100 µM in test [9] and above 100 µM in test [10].
Take `CC(C)=CCC/C(C)=C/Cc1c2c(c3oc(-c4ccc(O)c(O)c4)c(O)c(=O)c3c1O)C=CC(C)(C)O2`: the TGI is 14.5 µM in test [1]; 8.5 µM in [2]; 9.86 µM in test [4]; 18.7 µM in test [5]; 7.83 µM in test [7]; 10.7 µM in test [8]. The TGI in [9] turned out to be 8.56 µM; in test [10] it was 6.34 µM.
In the case of `COc1ccc2c(O)c1-c1c(OC)ccc(c1O)SSc1ccc(OC)c(c1O)-c1c(OC)ccc(c1O)SS2`, the total growth inhibition concentration (TGI) in [1] was above 100 µM; in test [2] it was above 100 µM; in test [3] it was above 100 µM; in [4], above 100 µM; in test [5], above 100 µM; in test [6], 44 µM. Moreover, the concentration for total growth inhibition (TGI) was 18.5 µM in test [7], 69 µM in test [8], above 100 µM in test [9] and above 100 µM in [10].
Turning to `CN(C)CCC(=O)[C@@]1(O)CC[C@H]2[C@@H]3CC=C4C[C@@H](O)CC[C@]4(C)[C@H]3CC[C@@]21C`, the TGI in test [1] was 32.2 µM; in test [2], 34.3 µM; in [3], 28.7 µM; in test [4], above 81.8 µM; in test [5], 51.1 µM; in test [6] it was 42.6 µM. The total growth inhibition concentration (TGI) in [7] is 29.5 µM; in [8] it was 31 µM; in test [9], 32.6 µM; in [10], 29.7 µM.
Regarding `COc1cc2cc(C(=O)N3CC(CCl)c4ccc(NO)cc43)[nH]c2c(OC)c1OC` (stereo not drawn), the TGI in test [1] is 11.8 µM; in test [2], 10.3 µM; in [3], 2.56 µM; in test [4], 0.342 µM; in test [5] it was 0.954 µM; in test [6] it was 2.15 µM. Moreover, the values for the TGI in [7], in test [9] and in [10] were 0.723 µM, above 100 µM and 0.535 µM, respectively.
In the case of `Cc1ccc(C(=O)NC2C(=O)NC(C(C)C)C(=O)N3CCCC3C(=O)N(C)CC(=O)N(C)C(C(C)C)C(=O)OC2C)c2c1Oc1c(c(C(=O)NC3C(=O)NC(C(C)C)C(=O)N4CCCC4C(=O)N(C)CC(=O)N(C)C(C(C)C)C(=O)OC3C)c3nc(-c4ccccc4)c(=O)oc3c1C)N2` (stereo not drawn), the TGI in [1] is 0.0442 µM and 0.312 µM; in [2], 13.3 µM; in test [4], 0.0149 µM; in test [5], 0.00548 µM; in test [6], 0.0944 µM and 0.0316 µM; in [7] it was 0.801 µM.
Consider `CCCCC(CC)C(=O)Oc1ccc(C(=O)c2ccccc2)c(O)c1` (stereo not drawn), for which the TGI in test [1] was above 100 µM; in test [2] it was above 100 µM; in test [3] it was above 100 µM; in test [4], above 100 µM; in test [5], 64.9 µM; in [6], above 100 µM. The TGI in test [7], in [8], in test [9] and in test [10] was above 100 µM throughout.
In the case of `CC1(C=O)CC(CCc2ccccc2)NC1Cc1ccc(O)cc1` (stereo not drawn), the total growth inhibition concentration (TGI) was 31.6 µM in test [1]; 30.8 µM in test [2]; 35 µM in [3]; 29.4 µM in test [4]; 41.9 µM in test [5]; 29 µM in test [6]. Also, the TGI in test [7] turned out to be 28.6 µM; in test [8] it was 26.5 µM; in [9] it was 29.6 µM; in test [10], 33.2 µM.
For the compound `COC(=O)[C@]12CC[C@H]3CN(S(=O)(=O)c4ccc(C)cc4)[C@H]([C@H]31)[C@H](c1ccco1)N2S(=O)(=O)c1ccc(C)cc1`, the TGI in test [1], in [2], in test [3], in [4], in test [5] and in test [6] was above 100 µM in each case. In addition, the TGI in [7], in [8], in [9] and in [10] was above 100 µM throughout.
In the case of `Nc1c(S(=O)(=O)O)cc(S(=O)(=O)O)c2ccc(N=Nc3ccccc3)c(O)c12`, the TGI in test [1], in [2], in [3], in [4], in test [5] and in test [6] was above 100 µM throughout. Also, the TGI in test [7], in [8], in test [9] and in test [10] was above 100 µM in each case.
`O=C(O)C1=C(CO)Oc2cc3c(cc2C1c1ccc2c(c1)OCO2)OCO3` (stereo not drawn): the concentration for total growth inhibition (TGI) in test [1], in [2], in test [3], in [4], in test [6] and in test [7] was above 100 µM in each case. For the same compound, the concentration for total growth inhibition (TGI) in test [8], in test [9] and in test [10] was above 100 µM in each case.
Turning to `C=C(C)[C@@H]1CC[C@]2(C(=O)O)CC[C@]3(C)[C@H](CC[C@@H]4[C@@]5(C)C/C(=C/c6ccco6)C(=O)C(C)(C)[C@@H]5CC[C@]43C)[C@@H]12`, the GI50 in test [5] was 6.66 µM; in test [6] it was 2.73 µM; in test [10] it was 1.72 µM. Moreover, the concentration for total growth inhibition (TGI) in test [5] is above 100 µM; in test [6], above 100 µM; in [10], 3.58 µM.
As for `Cc1nn(CNc2ccc(F)c(Cl)c2)c(=S)n1/N=C/c1ccc(-c2ccc(Cl)cc2Cl)o1`, the TGI is 34.6 µM in [2]; 44.9 µM in test [3]; 35.1 µM in test [4]; 52.9 µM in [5]; 42.6 µM in test [6]; 30.7 µM in test [7]. For the same compound, the TGI in test [8] was 29 µM; in test [9], 30.7 µM; in [10] it was 33.1 µM.
On to `O=P1(Oc2ccc(Cl)cc2Cl)Oc2cc3ccccc3cc2O1`, for which the TGI in test [1], in [2], in test [3], in [4], in test [6] and in test [8] was above 100 µM throughout. The figures for the concentration for total growth inhibition (TGI) in test [9] and in test [10] were above 100 µM and above 60.7 µM, respectively.

(Values after PubChem BioAssay (NCI).)
